Experiments:
Format in all cases: cell-based, human
[1] = test system: cathepsin B and CRABPII transcription; test: L1-dependent gene regulation by qPCR in HEK293-hL1wt cells; details: preincubation 96 h
Experimental: (§1) (A) Analysis of L1-32 cleavage by γ-secretase. Cells were treated for 48 h at 37° C. with presenilin inhibitor IX (DAPT) or for control with DMSO. Isolated membranes were incubated for 2 h at 37° C. and then separated into pellet or supernatant (SN) fractions by ultracentrifugation. Lanes 1 to 2 show cells treated with DMSO (vehicle). Lanes 3 and 4 show cells preincubated with DAPT. (B) SKOV3ip cells were treated with DAPT either in the presence or absence of the metalloprotease inhibitor TAPI-0 for 24 hr. Cells were lysed in BOG lysis buffer and analyzed by Western blot analysis. The cell supernatant was analyzed for soluble L1 using mAb L1-11A and the cell lysate was examined for L1-32 using peytL1. (C) HEK293 or HEK293-hL1wt cells were treated with DMSO, DAPT, TAPI-0 or both inhibitors for 96 h. mRNA was transcribed to cDNA and analyzed by qPCR for the genes CRABPII and cathepsin B. (D) Analysis of ERK phosphorylation in SKOV3ip cells after treatment with the indicated compounds.
We next investigated whether L1-mediated gene regulation was dependent on L1-processing, by carrying out inhibition experiments. […]
mRNA was isolated using the Quiagen RNAeasy mini kit (Quiagen Hilden, Germany). […] After exposing of the hybridized membranes, the PhosphorImager screens were scanned (Fuji FLA-3000, 100 μm resolution, Fuji BAS-reader software). […]

ERK phosphorylation = ERK phosphorylation in SKOV3ip cells; details: treatment with DAPT, TAPI-0
Experimental: as §1
(A) Effect of L1-antibodies on ERK phosphorylation in SKOV3ip cells. The cells were incubated for 24 hr at 37° C. with the indicated purified antibodies to L1 (10 μg/ml) or isotype control IgG. […] Soluble L1 in the supernant and L1-32 in the cell lysate were analyzed by Western blot. (C) mRNA was isolated from antibody treated SKOV3ip cells, transcribed to cDNA and analyzed by qPCR for the indicated genes. […]

[2] = test system: L1CAM transfected PT45-P1 cells; test: Caspase-3/-7 assay in L1CAM transfected PT45-P1 cells; details: inhibitor 10 μmol/L, 20 μg/mL etoposide 24 hours
Experimental: PT45-P1res cells (a,b) or PT45-P1 cells transfected with L1CAM or an empty control vector (mock) (c,d) were left untreated (w/o) or were either treated with Tapi-0, Tapi-1, GM6001 or L685,458 (each 10 μmol/L) for 24 hours. (a,c) Cellular lysates were subjected to western blotting using either the antibody clone UJ127 from Acris detecting only full-length L1CAM or the pcytL1 antibody detecting also the cytoplasmic part of L1CAM. HSP90 was detected as a control for equal protein load. (b,d) Thirty minutes after treatment with the respective inhibitor, cells were either left untreated or treated with 20 μg/mL etoposide for 24 hours. Then, cells were analysed for caspase-3/-7 activity expressed as n-fold induction of caspase-3/-7 activity of basal. Means±SD from three independent experiments are shown. * indicates p<0.05.
As described elsewhere (Sebens Müerköster et al., 2006), apoptosis was determined by staining with annexinV/propidium iodide (Biocarta, Hamburg, Germany) and subsequent fluorescence flow cytometry (GalaxyArgon Plus; DAKO Cytomation, Hamburg, Germany) using the FLOMAX software, and by the detection of caspase-3/-7 activity using a homogeneous luminescent assay (Promega, Mannheim, Germany). All samples were measured in duplicates.
For L1CAM transfection, PT45-P1 cells were seeded into 6 well plates (2×10^5 cells/well), were grown overnight, followed by transfection with 5 μL/well DIMRIE reagent (Invitrogen) and 0.6 μg/well of the following plasmids: pcDNA3.1 (mock) or pcDNA3.1-L1CAM (L1CAM). Upon transfection for 18 hours, 1 mL medium containing 20% FCS was added and cells were left untreated or were treated as indicated for further 24 hours. For knock down of L1CAM, PT45-P1res cells were seeded into 12 well plates (1×10^5 cells/well), were grown overnight followed by transfection with 12 μL/well RNAiFect reagent (Invitrogen) and 2 μg/well of either Stealth negative control siRNA (Invitrogen) or Stealth L1CAM siRNA (Invitrogen). After overnight transfection, cells were either left untreated or treated as indicated for further 24 hours.

SMILES: CC(C)C[C@H](CC(=O)NO)C(=O)N[C@@H](Cc1ccc2ccccc2c1)C(=O)N[C@@H](C)C(N)=O [TAPI-0]
- L1-dependent regulation of transcription for cathepsin B and CRABPII [1]: blocked
- ERK activation in treated cells (ERK phosphorylation): did not interfere with ERK activation
- apoptosis inducing effect of etoposide (caspase-3/-7) [2]: nor affect the apoptosis inducing effect of etoposide
